Where a name gives a salt, the structure may show the parent alone. Read-outs that look alike come from different tables or passages of the source. Marks after values point to notes of the source that are not given here.
Legend:
[1] = Phase solubility analysis of PM in HP-β-CD solutions; assay type: physicochemical; details: inclusion of PM by HP-β-CD
Experimental: Excess PM were added into 6 mL HP-β-CD solutions ranged from 0 to 150 mg/mL [14, 19]. The mixture solution was stirred at 1000 rpm for 24 h at 37 °C and filtered using 0.22 μm Millipore filtration. The apparent solubility of PM was calculated, and the stability constant (Ks) was calculated as the Higuchi-Connors equation, Equation (a). The Gibbs free energy (ΔG) was calculated as Equation (b), R represents the general gas constant and T represents the Kelvin temperature. (a) Ks=slope/(S0×(1–slope)) (b) ΔG=−RTlnKs

SU-DHL-6 cells [2] = assay: Annexin V-FITC/PI flow cytometry apoptosis assay; assay type: cell-based, human; details: 48 h
Experimental: The pro-apoptotic effect of the PM/HP-β-CD complex on SU-DHL-6 cells was investigated by flow cytometry. […] cells in good condition were collected and inoculated in the six-well plate with 2⋄10^5 cells per well. After being cultured for 24 h, cells were treated with PM and PM/HP-β-CD inclusion at 3 nM and 6 nM, using LBH589 at 6 nM as the positive control. The cells without drug treatment were the negative control. After 48 h incubation, the cells were then processed by annexin V-FITC/PI staining as the manufacturer’s instructions (KeyGen, 100 assays).

SU-DHL-6 cells [3] = assay: In vitro cytotoxicity study (MTT); assay type: cell-based; details: Homo sapiens, 48 h
Experimental: To investigate the anti-tumour proliferation effect of PM/HP-β-CD, in vitro cytotoxicity test was performed. After being seeded with 96-well plates, the in vitro cultured cells were allowed to acclimate for about 1 h. The experimental group was added with 100 μL of medium containing free PM, HP-β-CD, or PM/HP-β-CD with different concentrations, and the control group was added with an equal volume of fresh medium. Each group was set up with 3 parallel holes and a cultured incubator with 5% CO2 at 37 °C. At 48 h, the survival rate of each group was calculated with the MTT method, and the IC50 value was fitted.

[4] = test system: human double-hit lymphoma SU-DHL-6 xenograft tumours; assay type: in vivo
Experimental: (§1) To better determine the anti-tumour activity of the PM/HP-β-CD complex, the SU-DHL-6 cell line xenografts were established in immunodeficiency mice. The NOD/SCID mice were subcutaneously inoculated 7 × 10^6 cells per mouse. […] A mimic of HyperCVAD regimen, standard chemotherapy for B cell lymphoma ([22],[23]), especially aggressive subtypes, for example, double-hit lymphoma, was set as a positive control group for comparison (Table 2). Satellite groups were set up in the 10 mg/kg group, 20 mg/kg group, and the Hyper-CVAD group. Animals in the satellite groups were not sacrificed at the end of the treatment and underwent long-term treatment for further investigation. In the survival study, the animal mortality criterion was that the tumour volume reached 3000 mm^3 or the individual animal died, and the animal survival time was statistically analysed.
When the experimental period was over, the tumour was weighed and photographed, the main organs and tumours were collected, fixed, and embedded in paraffin for Histological and immunohistochemical analysis.

[5] = test system: SU-DHL-6 subcutaneous tumours; assay: Survival study in satellite groups of the SU-DHL-6 subcutaneous model; assay type: in vivo, NOD/SCID mice; details: long-term treatment, death criterion tumour volume 3000 mm^3 or death
Experimental: as §1

[6] = In vivo pharmacokinetics after oral or intravenous administration; details: SD rats, 10 mg/kg; for Cmax: read-out: maximum value (Cmax) of plasma concentration
Experimental: Adult SD rats (180–220 g) were used to investigate the in vivo kinetics of PM after oral or intravenous administration. The rats were fasted overnight and divided into oral and intravenous groups, containing three male and three female rats in each group. Then, 10 mg/kg of PM was administered in each rat. 0.2 mL of jugular vein blood samples were collected at a predetermined time interval of 0, 5, 15, 30, 60, 120, 240, 360, 480, and 600 min, centrifuged at 1500 rpm for 15 min at 4 °C to separate the plasma, and stored at −80 °C for the analysis by UPLC-MS. After the test, Phoenix WinNonlin software and non-compartmental analysis were used to calculate parameters such as maximum plasma concentration (Cmax), plasma clearance (CL), time to achieve maximum plasma concentration (Tmax), steady-state apparent distribution volume (Vdss), elimination half-life (t1/2), area under the concentration-time curve (AUC), and related bioavailability.

[7] = test system: acetyl histone H4 (Ac-H4); assay: Immunohistochemical detection of Ac-H4 in tumour tissue; assay type: in vivo, NOD/SCID mice; details: immunostaining after PM treatment, SU-DHL-6 subcutaneous tumour
Description: (§2) The proliferation of tumour cells was detected by immune histochemical staining with the primary antibody of Ki-67 (Lab Vision, MA, USA). DNA double-stranded breaks were investigated by staining with the primary antibody of H2A histone family member X (γH2AX, Upstate Biotechnology, Lake Placid, NY, USA). Primary antibodies of acetyl histone H4 (Ac-H4, Upstate Biotechnology, Lake Placid, NY, USA) were used to detect the acetylation of Histone H4. FITC-labelled secondary antibodies (F-0382; Sigma) were applied with a concentration of 1:500. The images were taken with the Nikon E800 scope.

γH2AX = assay: Immunohistochemical detection of γH2AX in tumour tissue; assay type: in vivo, NOD/SCID mice; details: immunostaining after PM treatment, SU-DHL-6 subcutaneous tumour
Description: as §2

Ki-67 = assay: Immunohistochemical detection of Ki-67 in tumour tissue; assay type: in vivo, NOD/SCID mice; details: immunostaining after PM treatment, SU-DHL-6 subcutaneous tumour
Description: as §2

[8] = test system: human double-hit lymphoma SU-DHL-6 cell line xenografts; assay: Oral versus intravenous administration study in SU-DHL-6 xenografts; details: for Number End/begin / RTV / Tumor Weight (g) X ±SD / Tumor Weight Inhibition (%) / Tumor volume T/C% / animal status / deaths: 16 days; for Body weight (g) X ± SD Begin / Tumor volume (mm^3) X ±SD Begin: begin of treatment; for Body Weight (g) X ±SD End / Tumor volume (mm^3) X ±SD End: end of 16 days treatment; for animal status / deaths: 10 mg/kg
Experimental: To determine whether PM is suitable for oral or intravenous administration, the anti-tumor activity and the safety were investigated in a human double-hit lymphoma SU-DHL-6 cell line xenografts established in immunodeficiency mice. Each mouse was injected subcutaneously with 0.1 mL of cell suspension containing 1×10^6 cells. […] Tumor size and body weight were measured during the experimental period and the tumor volumes were calculated according to the formula: volume (mm^3) = length × width^2 × 0.5. When the experimental period was over, all the mice were sacrificed, and the tumor was weighed and photographed.

[9] = both sexes, rat, plasma, intravenous administration
[10] = both sexes, rat, plasma, oral administration
[11] = positive control groups, dose column – (RTX 10 mg/kg), 14 days

CN(Cc1nc2c(N3CCOCC3)nc(-c3ccc(N)cc3)nc2n1C)c1ncc(C(=O)NO)cn1 [PM, Purinostat mesylate]
Gibbs free energy [1]: -5.055 kcal/mol | apoptotic SU-DHL-6 cells (SU-DHL-6 cells [2]; 3 nM): 14.99% | apoptotic SU-DHL-6 cells (SU-DHL-6 cells [2]; 6 nM): 55.2% | IC50 (SU-DHL-6 cells [3]): 1.88 nM | Body weight (g) X ± SD Begin ([4]; mouse, in vivo, iv, 2.5 mg/kg): 22.0 ± 0.3 g | Number End/begin ([4]; mouse, in vivo, iv, 2.5 mg/kg): 7/7 | RTV ([4]; mouse, in vivo, iv, 2.5 mg/kg): 14.21^begkmp | Tumour volume (mm^3) X ± SD Begin ([4]; mouse, in vivo, iv, 2.5 mg/kg): 140.3 ± 23.7 mm^3 | Tumour volume (mm^3) X ± SD End ([4]; mouse, in vivo, iv, 2.5 mg/kg): 1970.1 ± 638.3 mm^3 | Tumour volume T/C% ([4]; mouse, in vivo, iv, 2.5 mg/kg): 54.53% | Tumour weight (g) X ± SD ([4]; mouse, in vivo, iv, 2.5 mg/kg): 2.10 ± 0.98^cekmp g | Tumour weight Inhibition (%) ([4]; mouse, in vivo, iv, 2.5 mg/kg): 57.35% | Body weight (g) X ± SD Begin ([4]; mouse, in vivo, iv, 5 mg/kg): 22.3 ± 0.5 g | Number End/begin ([4]; mouse, in vivo, iv, 5 mg/kg): 7/7 | RTV ([4]; mouse, in vivo, iv, 5 mg/kg): 8.26^cfiloq | Tumour volume (mm^3) X ± SD Begin ([4]; mouse, in vivo, iv, 5 mg/kg): 146.2 ± 26.5 mm^3 | Tumour volume (mm^3) X ± SD End ([4]; mouse, in vivo, iv, 5 mg/kg): 1150.0 ± 510.6 mm^3 | Tumour volume T/C% ([4]; mouse, in vivo, iv, 5 mg/kg): 31.69% | Tumour weight (g) X ± SD ([4]; mouse, in vivo, iv, 5 mg/kg): 1.39 ± 0.47^cfhlnr g | Tumour weight Inhibition (%) ([4]; mouse, in vivo, iv, 5 mg/kg): 71.80% | Body weight (g) X ± SD Begin ([4]; mouse, in vivo, iv, 10 mg/kg): 22.3 ± 0.5 g | Number End/begin ([4]; mouse, in vivo, iv, 10 mg/kg): 7/7 | RTV ([4]; mouse, in vivo, iv, 10 mg/kg): 7.39 ^cfiloq | Tumour volume (mm^3) X ± SD Begin ([4]; mouse, in vivo, iv, 10 mg/kg): 150.9 ± 32.6 mm^3 | Tumour volume (mm^3) X ± SD End ([4]; mouse, in vivo, iv, 10 mg/kg): 1084.2 ± 502.8 mm^3 | Tumour volume T/C% ([4]; mouse, in vivo, iv, 10 mg/kg): 28.37% | Tumour weight (g) X ± SD ([4]; mouse, in vivo, iv, 10 mg/kg): 0.90 ± 0.43^cfilor g | Tumour weight Inhibition (%) ([4]; mouse, in vivo, iv, 10 mg/kg): 81.67% | Body weight (g) X ± SD Begin ([4]; mouse, in vivo, iv, 20 mg/kg): 22.2 ± 0.3 g | Number End/begin ([4]; mouse, in vivo, iv, 20 mg/kg): 7/7 | RTV ([4]; mouse, in vivo, iv, 20 mg/kg): 4.31^cfilor | Tumour volume (mm^3) X ± SD Begin ([4]; mouse, in vivo, iv, 20 mg/kg): 158.9 ± 22.6 mm^3 | Tumour volume (mm^3) X ± SD End ([4]; mouse, in vivo, iv, 20 mg/kg): 664.3 ± 190.7 mm^3 | Tumour volume T/C% ([4]; mouse, in vivo, iv, 20 mg/kg): 16.53% | Tumour weight (g) X ± SD ([4]; mouse, in vivo, iv, 20 mg/kg): 0.73 ± 0.28 ^cfilor g | Tumour weight Inhibition (%) ([4]; mouse, in vivo, iv, 20 mg/kg): 85.20% | Median survival (day) ([5]; PM for Injection 10 mg/kg): 30^bei day | Median survival (day) ([5]; PM for Injection 20 mg/kg): 30 ^bei day | CL ([6]; p.o.): 7280 ± 3290.7 mL/min/kg | Tmax ([6]; both sexes, rat, plasma, iv): 4.67 min | clearance ([6]; both sexes, rat, plasma, iv): 225 mL/min/kg | half-life ([6]; both sexes, rat, plasma, iv): 20.4 ± 19.7 min | Tmax ([6]; both sexes, rat, plasma, po): 5.67 min | half-life ([6]; both sexes, rat, plasma, po): 97.2 ± 41.5 min | AUC [6, 9]: 837 ± 277 ng·h/mL | Cmax [6, 9]: 3140 ± 1320 ng/mL | AUC [6, 10]: 56.2 ± 24.6 ng·h/mL | Cmax [6, 10]: 49.3 ± 26.4 ng/mL | bioavailability ([6]; both sexes, rat, plasma, oral versus intravenous, read-out: calculated bioavailability): 6.71% | expression of Ac-H4 in tumour tissue [7]: increased | expression of γH2AX in tumour tissue (γH2AX): increased | expression of Ki-67 in tumour tissue (Ki-67): decreased | Number End/begin ([8]; i.v. 10 mg/kg (PM/HP-β-CD)): 8/8 | RTV ([8]; i.v. 10 mg/kg (PM/HP-β-CD)): 6.84^cfi | Tumor Weight (g) X ±SD ([8]; i.v. 10 mg/kg (PM/HP-β-CD)): 1.51±0.49^cfi g | Tumor Weight Inhibition (%) ([8]; i.v. 10 mg/kg (PM/HP-β-CD)): 69.96% | Tumor volume T/C% ([8]; i.v. 10 mg/kg (PM/HP-β-CD)): 30.87% | Body weight (g) X ± SD Begin ([8]; i.v. 10 mg/kg (PM/HP-β-CD)): 22.6 ± 1.7 g | Tumor volume (mm^3) X ±SD Begin ([8]; i.v. 10 mg/kg (PM/HP-β-CD)): 194.6±26.1 mm^3 | Body Weight (g) X ±SD End ([8]; i.v. 10 mg/kg (PM/HP-β-CD)): 24.9 ± 1.9 g | Tumor volume (mm^3) X ±SD End ([8]; i.v. 10 mg/kg (PM/HP-β-CD)): 1321.9±317.2 mm^3 | animal status / deaths ([8]; oral group): one of the PM oral groups died | Number End/begin ([8]; p.o. 10 mg/kg (PM suspension)): 7/8 | RTV ([8]; p.o. 10 mg/kg (PM suspension)): 16.71^a | Tumor Weight (g) X ±SD ([8]; p.o. 10 mg/kg (PM suspension)): 4.57 ± 0.99 g | Tumor Weight Inhibition (%) ([8]; p.o. 10 mg/kg (PM suspension)): 9.16% | Tumor volume T/C% ([8]; p.o. 10 mg/kg (PM suspension)): 75.46% | Body weight (g) X ± SD Begin ([8]; p.o. 10 mg/kg (PM suspension)): 21.6 ± 1.2 g | Tumor volume (mm^3) X ±SD Begin ([8]; p.o. 10 mg/kg (PM suspension)): 199.5±22.5 mm^3 | Body Weight (g) X ±SD End ([8]; p.o. 10 mg/kg (PM suspension)): 24.9 ± 3.0 g | Tumor volume (mm^3) X ±SD End ([8]; p.o. 10 mg/kg (PM suspension)): 3300.6±715.1 mm^3 | animal status / deaths ([8]; venous group): did not have animals in abnormal status

Cc1[nH]c2ccccc2c1CCNCc1ccc(/C=C/C(=O)NO)cc1 [LBH589, reference compound]
apoptotic SU-DHL-6 cells (SU-DHL-6 cells [2]; 6 nM): 60.1% | RTV [4, 11]: 26.54 | Tumour volume T/C% [4, 11]: 101.83% | Tumour weight (g) X ± SD [4, 11]: 3.81 ± 1.08 g | Tumour weight Inhibition (%) [4, 11]: 22.72% | Tumour volume (mm^3) X ± SD Begin ([4]; positive control groups, dose column – (RTX 10 mg/kg), begin of treatment): 152.7 ± 30.6 mm^3 | Tumour volume (mm^3) X ± SD End ([4]; positive control groups, dose column – (RTX 10 mg/kg), end of 14 days treatment): 4015.5 ± 1048.0 mm^3 | Number End/begin ([4]; positive control groups, dose column – (RTX 10 mg/kg), regimens Table 2, 14 days): 7/7

Source: publication PMC8903780, “Therapeutic efficacy of an injectable formulation of purinostat mesylate in SU-DHL-6 tumour model” (Annals of Medicine, 2022)
